Test results taken from PMC6943619, “Synthesis and Pharmacological Evaluation of Hybrids Targeting Opioid and Neurokinin Receptors” (Molecules, 2019).
Where a SMILES comes first, the peptide text is derived from it. Bridges are numbered along the chain shown (N, C = ends). [ ]: non-standard residue; d: D form.

What was measured:
[1] = biological target: T1, human opioid receptor KOR (Homo sapiens, UniProt P41145); experiment: Radioligand binding assay, displacement of [3H]U-69593; details: displacement of [3H]U-69593 from membranes of CHO cells transfected with human KOR, 50 mM Tris/HCl pH 7.4, 0.5% BSA, peptidase inhibitors, 2 h at 25 °C, mean ± SEM, n ≥ 3
T1 construct: purchased PerkinElmer (Krakow, Poland); host or cells: CHO cell membranes
Procedure: (§1) A radioligand binding assay was performed to determine the opioid receptor (OR) binding affinities of the novel analogs using commercially available membranes of Chinese hamster ovary cells (CHO) transfected with human recombinant ORs. [^3H]DAMGO, [^3H]deltorphin-2, and [^3H]U-69593 were used as the radioligands for MOR, DOR, and KOR, respectively. Tyr-[D-Lys-Phe-Phe-Asp]NH2 (1) was used as a reference opioid compound. […] None of them acquired significant DOR affinity.
(§2) To determine the affinity of peptide analogs to respective receptors, competition binding experiments were performed, as described in detail elsewhere.
(§3) Commercial membranes of CHO cells stably expressing either human ORs or NK1 receptor were used. [^3H]DAMGO, [^3H]deltorphin-2, and [^3H]U-69593 were employed as the competing radioligands for MOR, DOR, and KOR, respectively, while [^3H][Sar^9, Met(O2)^11]SP was utilized for the NK1 receptor. Membranes were incubated in a 0.5 mL volume of 50 mM Tris/HCl (pH = 7.4), 0.5% bovine serum albumin (BSA), with a number of peptidase inhibitors (bacitracin, bestatin, captopril) and various concentrations of radioligands for 2 h at 25 °C. Nonspecific binding was assessed in the presence of […] naloxone for ORs or SP for NK1 receptor.
(§4) The pharmacological terminology adopted in this paper is consistent with International Union of Basic and Clinical Pharmacology (IUPHAR) recommendations. Concentration–response curves were analyzed by nonlinear regression using Graph Pad Prism 6.0 (La Jolla, CA, USA). […]. […] Concentration–response curves were fitted with the four-parameter logistic nonlinear regression model (1) Effect=baseline+Emax−baseline/1+10^logEC50−X·n where X is the agonist concentration and n is the Hill coefficient. Ligand efficacy was expressed as intrinsic activity (α) calculated as a ratio of the peptide Emax to the Emax of the standard agonist (Supplementary Materials, Figure S7). […]. All statistical analyses were performed using Graph Pad Prism 6.0 (La Jolla, CA, USA). Differences between groups were analyzed with one-way ANOVA and a post hoc multiple comparison by the Student–Newman–Keuls test. A probability level of 0.05 or smaller was used to indicate statistical significance.

[2] = biological target: human NK1 (Homo sapiens, UniProt P25103); experiment: Radioligand binding assay, displacement of [3H][Sar9, Met(O2)11]SP; set-up: purchased PerkinElmer (Krakow, Poland); host or cells: CHO cell membranes; details: displacement of [3H][Sar9, Met(O2)11]SP from membranes of CHO cells transfected with human NK1 receptor; 50 mM Tris/HCl pH 7.4, 0.5% BSA, peptidase inhibitors, 2 h at 25 °C; mean ± SEM, n ≥ 3
Procedure: The binding assay was also used to examine the affinity of the synthesized hybrids for NK1 in commercial membranes of CHO cells stably expressing human NK1.
as §2
(§5) Commercial membranes of CHO cells stably expressing either human ORs or NK1 receptor were used. […] Membranes were incubated in a 0.5 mL volume of 50 mM Tris/HCl (pH = 7.4), 0.5% bovine serum albumin (BSA), with a number of peptidase inhibitors (bacitracin, bestatin, captopril) and various concentrations of radioligands for 2 h at 25 °C.
(§6) The pharmacological terminology adopted in this paper is consistent with International Union of Basic and Clinical Pharmacology (IUPHAR) recommendations. Concentration–response curves were analyzed by nonlinear regression using Graph Pad Prism 6.0 (La Jolla, CA, USA). […] Concentration–response curves were fitted with the four-parameter logistic nonlinear regression model (1) Effect=baseline+Emax−baseline/1+10^logEC50−X·n where X is the agonist concentration and n is the Hill coefficient. Ligand efficacy was expressed as intrinsic activity (α) calculated as a ratio of the peptide Emax to the Emax of the standard agonist (Supplementary Materials, Figure S7). […] All statistical analyses were performed using Graph Pad Prism 6.0 (La Jolla, CA, USA). Differences between groups were analyzed with one-way ANOVA and a post hoc multiple comparison by the Student–Newman–Keuls test. A probability level of 0.05 or smaller was used to indicate statistical significance.

[3] = cited from earlier work
Source text: Here, we report on the synthesis and the initial pharmacological testing of several hybrid peptides with opioid agonist/NK1 antagonist and opioid agonist/NK1 agonist profiles. We performed structure affinity/activity relationship studies, seeking hybrids that could simultaneously and potently bind opioid and NK1 receptors. Both types of hybrids were designed with the same opioid fragment to make the comparison of their activity easier. It was already documented in the literature that simultaneous activation of both MOR and KOR intensifies the analgesic effect of pure MOR agonists. There ...

[4] = test system: mice; experiment: Stool collection (stool mass, stool water content); type: in vivo; details: repeated i.p. injections 5 mg/kg, stool collected 90 min after injection on Days 1–6, compared to control group, n = 10
Procedure: In order to determine the influence of prolonged administration of the tested compounds on gastrointestinal passage, stool was collected for six days from mice used in the tolerance development test.
Figure 5 Effect of repeated i.p. injections of saline and the tested peptides on stool mass (A), stool water content (B), food intake (C), and water consumption (D). The data represent mean ± SEM, n = 10. Statistical significance was assessed using one-way ANOVA and a post hoc multiple comparison by the Student–Newman–Keuls test. *** p < 0.001, as compared to control.
After the i.p. injections of saline or peptides (Days 1–6), mice were placed in a separate clean cages and stool was collected for a period of 90 min. Fecal pellets were collected immediately after expulsion to avoid evaporation and placed in closed 1.5 mL tubes. Tubes were weighed to obtain the wet weight of the stool. Then, the tubes were opened and stool was dried overnight at 65 °C and reweighed to obtain the dry weight. The stool water content was calculated from the difference between the wet and dry stool weights.

[5] = biological target: T2, human KOR (Homo sapiens, UniProt P41145); experiment: Calcium mobilization functional assay, agonist mode; type: cell-based; details: CHO cells co-expressing human KOR and Gαqi5; Fluo-4 AM calcium signal; n = 5; read-out: KOR pEC50 (CL95%) (converted)
T2 construct: expressed in transfected cells; host or cells: CHO cells (University of Ferrara), co-expressing Gαqi5

[6] = biological target: T3, human MOR (Homo sapiens, UniProt P35372); experiment: as above; type: cell-based; details: CHO cells co-expressing human MOR and Gαqi5; Fluo-4 AM calcium signal; n = 5; read-out: MOR pEC50 (CL95%) (converted)
T3 construct: expressed in transfected cells; host or cells: CHO cells (University of Ferrara), co-expressing Gαqi5

[7] = biological target: T4, human opioid receptor DOR (Homo sapiens, UniProt P41143); experiment: Radioligand binding assay, displacement of [3H]deltorphin-2; details: displacement of [3H]deltorphin-2 from membranes of CHO cells transfected with human DOR, 50 mM Tris/HCl pH 7.4, 0.5% BSA, peptidase inhibitors, 2 h at 25 °C, mean ± SEM, n ≥ 3
T4 construct: purchased PerkinElmer (Krakow, Poland); host or cells: CHO cell membranes
Procedure: A radioligand binding assay was performed to determine the opioid receptor (OR) binding affinities of the novel analogs using commercially available membranes of Chinese hamster ovary cells (CHO) transfected with human recombinant ORs. […] Tyr-[D-Lys-Phe-Phe-Asp]NH2 (1) was used as a reference opioid compound.
as §2, §5, §6

[8] = biological target: T5, DOR (Homo sapiens, UniProt P41143); experiment: Calcium mobilization functional assay, agonist mode; type: cell-based; details: CHO cells co-expressing DOR and GαqG66Di5; Fluo-4 AM calcium signal; n = 5
T5 construct: expressed in transfected cells; host or cells: CHO cells (University of Ferrara), co-expressing GαqG66Di5

[9] = biological target: T6, human opioid receptor MOR (Homo sapiens, UniProt P35372); experiment: Radioligand binding assay, displacement of [3H]DAMGO; details: displacement of [3H]DAMGO from membranes of CHO cells transfected with human MOR, 50 mM Tris/HCl pH 7.4, 0.5% BSA, peptidase inhibitors, 2 h at 25 °C, mean ± SEM, n ≥ 3
T6 construct: purchased PerkinElmer (Krakow, Poland); host or cells: CHO cell membranes
Procedure: as §1, §2, §3, §4

T1 sequence (P41145 whole entry): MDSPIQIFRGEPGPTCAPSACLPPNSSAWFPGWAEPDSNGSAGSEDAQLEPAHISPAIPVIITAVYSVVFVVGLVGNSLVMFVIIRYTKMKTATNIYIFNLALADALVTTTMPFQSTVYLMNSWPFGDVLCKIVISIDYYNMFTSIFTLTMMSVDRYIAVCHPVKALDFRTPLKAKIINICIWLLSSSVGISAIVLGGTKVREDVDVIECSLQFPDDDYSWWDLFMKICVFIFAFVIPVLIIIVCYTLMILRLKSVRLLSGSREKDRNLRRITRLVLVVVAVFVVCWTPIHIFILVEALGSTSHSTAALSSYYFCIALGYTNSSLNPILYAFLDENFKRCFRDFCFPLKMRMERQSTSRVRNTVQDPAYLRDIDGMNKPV
T2 sequence (P41145 whole entry): as above
T6 sequence (P35372 whole entry): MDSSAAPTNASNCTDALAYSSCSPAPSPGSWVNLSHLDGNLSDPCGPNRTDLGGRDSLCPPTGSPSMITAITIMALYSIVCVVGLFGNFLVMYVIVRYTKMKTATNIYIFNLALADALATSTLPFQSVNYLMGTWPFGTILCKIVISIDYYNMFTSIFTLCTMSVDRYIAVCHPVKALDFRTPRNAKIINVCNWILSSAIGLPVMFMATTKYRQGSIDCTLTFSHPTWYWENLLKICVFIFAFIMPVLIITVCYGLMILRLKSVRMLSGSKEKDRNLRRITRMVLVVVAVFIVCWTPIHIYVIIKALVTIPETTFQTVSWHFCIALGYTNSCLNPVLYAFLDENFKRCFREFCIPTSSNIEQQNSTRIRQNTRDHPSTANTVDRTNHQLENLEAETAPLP
T3 sequence (P35372 whole entry): as above
Sequence of human NK1 (P25103 whole entry): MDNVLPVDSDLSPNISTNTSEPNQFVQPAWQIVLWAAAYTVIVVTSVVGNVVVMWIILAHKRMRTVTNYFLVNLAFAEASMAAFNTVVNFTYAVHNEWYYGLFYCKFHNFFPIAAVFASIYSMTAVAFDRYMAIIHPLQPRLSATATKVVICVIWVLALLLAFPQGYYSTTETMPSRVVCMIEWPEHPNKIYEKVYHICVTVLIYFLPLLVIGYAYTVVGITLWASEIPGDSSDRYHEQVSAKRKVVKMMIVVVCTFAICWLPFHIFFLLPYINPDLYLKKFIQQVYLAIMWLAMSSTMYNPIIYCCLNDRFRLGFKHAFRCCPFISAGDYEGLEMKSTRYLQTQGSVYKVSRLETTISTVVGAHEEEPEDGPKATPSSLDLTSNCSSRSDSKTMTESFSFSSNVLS
T4 sequence (P41143 whole entry): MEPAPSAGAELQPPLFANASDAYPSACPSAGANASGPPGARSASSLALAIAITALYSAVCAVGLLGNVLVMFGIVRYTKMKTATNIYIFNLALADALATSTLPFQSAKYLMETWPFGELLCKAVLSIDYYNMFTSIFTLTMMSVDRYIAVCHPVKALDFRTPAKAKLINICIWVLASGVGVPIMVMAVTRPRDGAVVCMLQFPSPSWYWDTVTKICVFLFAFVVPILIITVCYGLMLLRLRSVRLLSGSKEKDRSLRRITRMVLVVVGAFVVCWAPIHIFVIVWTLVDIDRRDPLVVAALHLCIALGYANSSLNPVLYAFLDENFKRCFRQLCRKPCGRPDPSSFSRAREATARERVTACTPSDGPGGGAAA
T5 sequence (P41143 whole entry): as above

In the case of NC(=O)[C@@H]1CC(=O)NCCCC[C@@H](NC(=O)[C@@H](N)Cc2ccc(O)cc2)C(=O)N[C@@H](Cc2ccccc2)C(=O)N[C@@H](Cc2ccccc2)C(=O)N1 [compound 1, Tyr-c[D-Lys-Phe-Phe-Asp]NH2] (H-Y[dK]FFD-NH2; lactam 2-5), the Ki [1] is listed as 1.12 ± 0.2 nM, the “Ki NK1” value [2] is listed as “Inactive” and the enzymatic stability [3] is listed as “very good enzymatic stability”. The “stool mass (constipation)” value [4] was “serious constipation”, the EC50 [5] was 2.19 nM and the EC50 [6] was 1.05 nM. The Ki [7] was 171 ± 3.5 nM, the “DOR pEC50 (CL95%)” value [8] was “Crc incomplete” and the Ki [9] was 0.35 ± 0.02 nM.
